Measured values: the NIST ThermoML archive (doi:10.1021/acs.jced.6b00786)
± gives the expanded uncertainty stated by the source.

What was measured:
[1] = 101 kPa, Liquid, Vibrating tube method
[2] = xn = mol fraction of the nth substance listed; conditions: 101 kPa, Liquid, Vibrating tube method, x2 = 0

NC=O [formamide]
mass density ([1]; 278.15 K): 1146.62 ± 0.2 kg/m3 | mass density ([1]; 288.15 K): 1138.17 ± 0.19 kg/m3 | mass density ([1]; 298.15 K): 1129.73 ± 0.19 kg/m3 | mass density ([1]; 308.15 K): 1121.22 ± 0.18 kg/m3 | mass density ([1]; 323.15 K): 1108.46 ± 0.17 kg/m3 | mass density ([1]; 333.15 K): 1099.88 ± 0.17 kg/m3

O [water]
mass density ([1]; 274.15 K): 999.899 ± 0.043 kg/m3 | mass density ([1]; 275.15 K): 999.94 ± 0.043 kg/m3 | mass density ([1]; 276.15 K): 999.964 ± 0.043 kg/m3 | mass density ([1]; 277.15 K): 999.972 ± 0.049 kg/m3 | mass density ([1]; 278.15 K): 999.964 ± 0.043 kg/m3 | mass density ([1]; 279.15 K): 999.94 ± 0.043 kg/m3 | mass density ([1]; 280.15 K): 999.901 ± 0.043 kg/m3 | mass density ([1]; 281.15 K): 999.848 ± 0.043 kg/m3 | mass density ([1]; 282.15 K): 999.781 ± 0.043 kg/m3 | mass density ([1]; 283.15 K): 999.699 ± 0.043 kg/m3 | mass density ([1]; 323.15 K): 988.03 ± 0.049 kg/m3 | mass density ([1]; 333.15 K): 983.191 ± 0.052 kg/m3

O [water] + NC=O
mass density ([2]; 274.15 K): 999.899 ± 0.043 kg/m3 | mass density ([2]; 275.15 K): 999.94 ± 0.043 kg/m3 | mass density ([2]; 276.15 K): 999.964 ± 0.043 kg/m3 | mass density ([2]; 277.15 K): 999.972 ± 0.049 kg/m3 | mass density ([2]; 278.15 K): 999.964 ± 0.043 kg/m3 | mass density ([2]; 279.15 K): 999.94 ± 0.043 kg/m3 | mass density ([2]; 280.15 K): 999.901 ± 0.043 kg/m3 | mass density ([2]; 281.15 K): 999.848 ± 0.043 kg/m3 | mass density ([2]; 282.15 K): 999.781 ± 0.043 kg/m3 | mass density ([2]; 283.15 K): 999.699 ± 0.043 kg/m3 | mass density ([2]; 323.15 K): 988.03 ± 0.049 kg/m3 | mass density ([2]; 333.15 K): 983.191 ± 0.052 kg/m3
